Results as given in patent US20260250318A1, “COMPOSITIONS AND METHODS FOR CROSSING THE BLOOD BRAIN BARRIER” (VOYAGER THERAPEUTICS, INC., priority 2022, published 2026).

How the values were obtained:
[1] = system: brain; experiment: Matured TTM-001 and TTM-002 variants, NGS enrichment in mouse brain; type: in vivo, mice; settings: relative to AAV9 control
[2] = system: brains, heart, liver, muscle, and DRG of the NHPs; experiment: Maturation of TTM-001 and TTM-002 capsids, NGS enrichment in NHP tissues; type: in vivo; settings: relative to AAV9 control
How it was run: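 Variants carry mutations within and flanking the loop IV peptide insert: positions 450–466 were triplet-randomized, while positions 449–466 received low-frequency point mutations. The combined pool went into two NHPs, and each peptide was scored by NGS enrichment ratio against AAV9.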

[3] = NGS fold-enrichment, brain of mice
[4] = NGS fold-enrichment, DRG of NHPs
[5] = NGS fold-enrichment, RNA, brain of NHPs
[6] = NGS fold-enrichment, heart of NHPs
[7] = NGS fold-enrichment, liver DNA of NHPs
[8] = NGS fold-enrichment, liver RNA of NHPs
[9] = NGS fold-enrichment, muscle of NHPs
[10] = NGS fold-enrichment of matured AAV capsid variants, NHP brain, RNA

Sequence	Fold Enrichment relative to AAV9, Brain (Mouse) ([1]; mouse brain) [fold]	Fold Enrichment relative to AAV9, Brain (NHP) [2, 10] [fold]	Fold Enrichment relative to AAV9, DRG (NHP) ([2]; NHP DRG) [fold]	Fold Enrichment relative to AAV9, Heart (NHP) ([2]; NHP heart) [fold]	Fold Enrichment relative to AAV9, Liver DNA (NHP) ([2]; NHP liver, DNA) [fold]	Fold Enrichment relative to AAV9, Liver RNA (NHP) ([2]; NHP liver, RNA) [fold]	Fold Enrichment relative to AAV9, Muscle (NHP) ([2]; NHP muscle) [fold]	other results
KTINGSGSPHSKAQKQQD								Fold Enrichment relative to AAV9, Brain (Mouse) [1, 3]: 110.196 fold; Fold Enrichment relative to AAV9, DRG (NHP) [2, 4]: 0.000 fold; Fold Enrichment relative to AAV9, Brain (NHP) [2, 5]: 70.116 fold; Fold Enrichment relative to AAV9, Heart (NHP) [2, 6]: 0.024 fold; Fold Enrichment relative to AAV9, Liver DNA (NHP) [2, 7]: 0.083 fold; Fold Enrichment relative to AAV9, Liver RNA (NHP) [2, 8]: 0.064 fold; Fold Enrichment relative to AAV9, Muscle (NHP) [2, 9]: 0.000 fold
KTINGSGSPHSKAQKTLT	66.415	56.844	0.000	0.017	1.400	1.800	0.009	
KTINGSGSPHSKAQKVIT	95.147	53.273	0.000	0.000	0.402	0.357	0.000	
KTINGSGSPHSKAQLHHT	58.418	56.815	0.025	0.000	0.368	0.712	0.010	
KTINGSGSPHSKAQLPST	84.918	56.238	0.005	4.258	0.185	1.040	0.001	
KTINGSGSPHSKAQMPNT	66.040	52.408	0.084	0.036	0.359	0.057	0.025	
KTINGSGSPHSKAQMPST	114.331	54.986	1.691	0.039	0.202	0.450	0.028	
KTINGSGSPHSKAQNIII	76.742	56.630	0.000	0.062	0.056	0.099	0.123	
KTINGSGSPHSKAQNNDQ	59.664	53.226	0.000	0.000	0.046	0.593	0.000	
KTINGSGSPHSKAQNTHD	81.189	58.108	0.000	0.027	0.126	0.410	0.000	
KTINGSGSPHSKAQNTYA								Fold Enrichment relative to AAV9, Brain (Mouse) [1, 3]: 101.715 fold; Fold Enrichment relative to AAV9, DRG (NHP) [2, 4]: 0.000 fold; Fold Enrichment relative to AAV9, Brain (NHP) [2, 5]: 59.603 fold; Fold Enrichment relative to AAV9, Heart (NHP) [2, 6]: 0.000 fold; Fold Enrichment relative to AAV9, Liver DNA (NHP) [2, 7]: 0.346 fold; Fold Enrichment relative to AAV9, Liver RNA (NHP) [2, 8]: 0.425 fold; Fold Enrichment relative to AAV9, Muscle (NHP) [2, 9]: 0.000 fold
KTINGSGSPHSKAQPAKT								Fold Enrichment relative to AAV9, Brain (Mouse) [1, 3]: 215.275 fold; Fold Enrichment relative to AAV9, Brain (Mouse) ([1]; NGS fold-enrichment, mouse brain): 215.275 fold; Fold Enrichment relative to AAV9, Brain (NHP) ([2]; NGS fold-enrichment of RNA, NHP brain): 111.472 fold; Fold Enrichment relative to AAV9, DRG (NHP) [2, 4]: 0.331 fold; Fold Enrichment relative to AAV9, DRG (NHP) ([2]; NGS fold-enrichment, NHP DRG): 0.331 fold; Fold Enrichment relative to AAV9, Heart (NHP) ([2]; NGS fold-enrichment, NHP heart): 0.000 fold; Fold Enrichment relative to AAV9, Liver DNA (NHP) ([2]; NGS fold-enrichment, NHP liver DNA): 1.796 fold; Fold Enrichment relative to AAV9, Liver RNA (NHP) ([2]; NGS fold-enrichment, NHP liver RNA): 0.044 fold; Fold Enrichment relative to AAV9, Muscle (NHP) ([2]; NGS fold-enrichment, NHP muscle): 1.089 fold; Fold Enrichment relative to AAV9, Brain (NHP) [2, 5]: 111.472 fold; Fold Enrichment relative to AAV9, Heart (NHP) [2, 6]: 0.000 fold; Fold Enrichment relative to AAV9, Liver DNA (NHP) [2, 7]: 1.796 fold; Fold Enrichment relative to AAV9, Liver RNA (NHP) [2, 8]: 0.044 fold; Fold Enrichment relative to AAV9, Muscle (NHP) [2, 9]: 1.089 fold
KTINGSGSPHSKAQPART	127.301	55.513	0.000	0.000	0.991	1.294	0.328	
KTINGSGSPHSKAQPLGT	68.656	53.049	0.015	0.004	0.222	0.515	0.001	
KTINGSGSPHSKAQPPAT								Fold Enrichment relative to AAV9, Brain (Mouse) [1, 3]: 117.453 fold; Fold Enrichment relative to AAV9, DRG (NHP) [2, 4]: 0.048 fold; Fold Enrichment relative to AAV9, Brain (NHP) [2, 5]: 63.510 fold; Fold Enrichment relative to AAV9, Heart (NHP) [2, 6]: 0.030 fold; Fold Enrichment relative to AAV9, Liver DNA (NHP) [2, 7]: 0.302 fold; Fold Enrichment relative to AAV9, Liver RNA (NHP) [2, 8]: 0.126 fold; Fold Enrichment relative to AAV9, Muscle (NHP) [2, 9]: 0.031 fold
KTINGSGSPHSKAQRDIT	88.122	52.415	0.098	0.000	0.605	1.784	0.008	
KTINGSGSPHSKAQRDQT	102.317	51.897	0.069	0.014	0.554	0.867	0.040	
KTINGSGSPHSKAQREMT	70.961	51.076	0.000	24.900	0.476	1.564	143.49	
